Article PMC11284600, “Many human pharmaceuticals are weak inhibitors of the cytochrome P450 system in rainbow trout (Oncorhynchus mykiss) liver S9 fractions” (Frontiers in Toxicology, 2024)
Where a name gives a salt, the structure may show the parent alone. Read-outs that look alike come from different tables or passages of the source.

Tests used:
[1] = Unbound fraction in RT-S9 by rapid equilibrium dialysis; assay type: in vitro ADME, rainbow trout (Oncorhynchus mykiss); details: 10 µM test substance, 1 mg/mL RT-S9, pH 7.8, 11°C, n = 3, read-out: Unbound fraction (fU,RT-S9)
Method: The unbound (free) fractions of the test substances in RT-S9 (fU,RT-S9) were determined using rapid equilibrium dialysis assay (RED, Thermo Fisher Scientific), which exploits two-compartment inserts separated by a dialysis membrane with a molecular weight cut-off of 8,000 Da. In the RED assay, each test pharmaceutical (10 μM) was incubated in triplicate with RT-S9 (1 mg/mL) in 50 mM potassium phosphate buffer (pH 7.8) in a total volume of 300 µL on one side of the membrane (protein-containing chamber), and 350 μL of the plain phosphate buffer on the other side (protein-free chamber). To reach equilibrium, the samples were incubated on an orbital shaker (C25KC Incubator shaker, New Brunswick Scientific, 120 rpm) at 11°C for 4 h. Next, 50 µL aliquots were collected from both chambers separately and diluted by adding 50 µL of the plain buffer (to the protein-containing sample) or 50 μL of 1 mg/mL RT-S9 in the buffer (to the protein-free sample). Finally, the RT-S9 protein was precipitated by the addition of acetonitrile (+200 μL) to both samples separately, followed by incubation on ice for 30 min and centrifugation (16100 g, 15 min). The test substance concentrations in the supernatants of both samples were determined using liquid chromatography. The instrumentation and the analytical methods used for chromatographic analyses are described in detail in the Supplementary Table S2. The unbound fractions of the test substances in RT-S9 (fU,RT-S9) were calculated according to Eq. 3: fU,RT−S9=1− PC−PF/PC (3) where [PC] and [PF] are the test substance concentrations in the samples collected from protein-containing and protein-free chambers, respectively. To account for the test substance’s binding to the RT-S9, the nominal IC50 values were corrected for unbound fraction (fU,RT-S9) according to Eq. 4: Unbound IC50=Nominal IC50×fU,RT−S9 (4)

[2] = biological target: T1, CYP3A-like BFCOD activity (Oncorhynchus mykiss, UniProt O42563); assay: BFCOD inhibition in RT-S9 (IC50 shift assay); details: both, Christophersen, Bornhoeved, rainbow trout (Oncorhynchus mykiss)
T1 sequence (O42563 1-518): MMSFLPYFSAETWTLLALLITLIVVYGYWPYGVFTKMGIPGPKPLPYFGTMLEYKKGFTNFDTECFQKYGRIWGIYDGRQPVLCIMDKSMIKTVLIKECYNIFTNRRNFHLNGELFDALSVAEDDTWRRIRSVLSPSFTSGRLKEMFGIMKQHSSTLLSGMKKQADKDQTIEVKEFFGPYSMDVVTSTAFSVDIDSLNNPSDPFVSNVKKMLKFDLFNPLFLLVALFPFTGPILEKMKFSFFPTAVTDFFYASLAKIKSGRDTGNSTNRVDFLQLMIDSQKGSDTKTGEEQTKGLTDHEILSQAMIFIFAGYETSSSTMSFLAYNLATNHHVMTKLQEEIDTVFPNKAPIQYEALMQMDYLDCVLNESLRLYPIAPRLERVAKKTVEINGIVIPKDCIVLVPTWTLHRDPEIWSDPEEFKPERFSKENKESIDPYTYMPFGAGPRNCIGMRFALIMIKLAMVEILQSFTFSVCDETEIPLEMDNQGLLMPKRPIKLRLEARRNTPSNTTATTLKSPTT
Method: (§1) Commercially available rainbow trout (O. mykiss) liver S9 fractions were used as the enzyme source for the in vitro P450 inhibition assays (RTL-S9, total protein concentration 20 mg/mL, Primacyt Cell Culture Technology GmbH).
(§2) The inhibitory impacts of the test substances toward the rainbow trout liver P450 system in vitro were assessed based on EROD and BFCOD as the marker reactions for CYP1A- and CYP3A-like isoenzyme activities, respectively. […] In this study, the EROD (CYP1A) and BFCOD (CYP3A) activities were determined using 0.5 mg/mL RT-S9 (total protein) concentration and 1 or 2 mM NADPH, respectively. […] All incubations were performed in duplicate in a total volume of 100 µL of potassium phosphate buffer (0.1 M, pH 7.8), at 11°C ± 1°C on a thermostated orbital shaker (LLG Labware). The reactions were terminated by the addition of 37.5 μL of the quenching solution (0.5 M Trizma base/acetonitrile 20:80, v/v). […] The quantitation of the metabolites (resorufin or HFC) was based on linear regression of the respective standards prepared in the potassium phosphate buffer. Negative control incubations were performed separately without the marker substrate, without cofactors, and without RT-S9 to ensure that the detected fluorescence signals arise from the metabolic conversion of the marker substrates (ER or BFC) into their respective metabolites (resorufin or HFC, respectively).
(§3) In this study, the preincubation was performed using three different protocols A-C (Table 2). In the first protocol, the test substance (each separately at six different concentrations between 0.01 and 500 µM) and RT-S9 were preincubated without any cofactors, and the marker reaction was initiated by the addition of the marker substrate (ER or BFC) and NADPH (Protocol A). This enabled the determination of the inhibitory impact of the parent form of the test substance on the respective marker activity. In the second protocol, the test substance and RT-S9 were preincubated together with NADPH, and the marker reaction was initiated by the addition of the marker substrate (Protocol B). In this manner, the test substance could undergo P450 metabolism already during the preincubation step, which may reduce its concentration and thus the inhibitory impact toward the marker reactions, or result in the formation of reactive or inhibitory metabolites, which typically increases the inhibitory impact compared with the parent form (Protocol A). […] In this manner, the test substance could undergo both P450 and phase II metabolism already during the preincubation step, which may likewise reduce its concentration and inhibitory impact toward the marker reactions, and even help eliminate the possible reactive metabolites via glutathione conjugation. […] Additionally, positive control incubations of the marker substrates (ER or BFC) without the test substance (zero inhibitor concentration) were included in each series to determine the basal EROD or BFCOD activity in RT-S9.
(§4) The residual solvent concentration was kept constant at all inhibitor concentrations, including zero, to eliminate its impact on the IC50 concentrations derived from the empirical data. The IC50 shifts for Protocols B and C were calculated according to Eq. 2: IC50 shift=IC50,Protocol A/IC50,Protocol B or Protocol C (2)
(§5) In this manner, the impact of the test substance’s own metabolism (during the preincubation step) on the inhibitory impact could be evaluated.

[3] = system: Human CYP1A; details: ref Drugbank unless otherwise stated (Dragovic et al., 2013; Conard and Ober 1984; Niwa et al., 2005); cited from earlier work
[4] = design: method as in PubChem; details: (e) empirical; ref PubChem; cited from earlier work
[5] = system: CYP1A-like ethoxyresorufin O-deethylase (EROD) activity; assay: in vitro; details: both, Christophersen, Bornhoeved, rainbow trout (Oncorhynchus mykiss); for inhibition at 10 min: pH 7.8
Method: as §1, §2, §3, §4, §5

[6] = biological target: T2, CYP3A-like 7-benzyloxy-4-trifluoromethylcoumarin O-debenzylase (BFCOD) activity in rainbow trout liver S9 fractions (Oncorhynchus mykiss, UniProt O42563); assay: BFCOD inhibition in RT-S9 (IC50 shift assay); details: within the tested concentration range
T2 sequence (O42563 1-518): T1 sequence (O42563 1-518)
Method: as §1, §2, §3, §4, §5

[7] = system: Human CYP3A; details: cited from earlier work; for Human CYP3A interactions: substrate status: ref Drugbank unless otherwise stated (Dragovic et al., 2013; Niwa et al., 2005)
[8] = system: CYP1A-like ethoxyresorufin O-deethylase (EROD) activity in rainbow trout liver S9 fractions; assay: in vitro
Method: as §1, §2, §3, §4, §5

[9] = system: CYP1A-like EROD activity; assay: in vitro; details: both, Christophersen, Bornhoeved, rainbow trout (Oncorhynchus mykiss)
Method: as §1, §2, §3, §4, §5

[10] = rainbow trout liver S9 fractions (RT-S9)
[11] = s9, pH 7.8, BFCOD inhibition in RT-S9, Nominal IC50, Protocol B: 30 min preincubation w/NADPH (2 mM)
[12] = s9, pH 7.8, BFCOD inhibition in RT-S9, Nominal IC50, Protocol C: 30 min preincubation w/all cofactors (NADPH, UDPGA, PAPS, glutathione)
[13] = pH 7.8, EROD inhibition in RT-S9, Nominal IC50
[14] = pH 7.8, EROD inhibition in RT-S9, Unbound IC50

In the case of `Clc1ccc2c(c1)CCc1cccnc1C2=C1CCNCC1` [Desloratadine, desloratadine], the fraction unbound at 4 h, 10 µM [1, 10] is reported as 0.15 ± 0.03.
`CN1CCN(C2=Nc3cc(Cl)ccc3Nc3ccccc32)CC1` [Clozapine, clozapine] showed an inhibition at 20 min ([2]; s9, pH 7.8) of no more than 50%, an IC50 at 20 min ([2]; s9, pH 7.8, BFCOD inhibition in RT-S9, Nominal IC50, Protocol A: 30 min preincubation without cofactors, extrapolated) greater than 100 µM and an IC50 at 20 min [2, 11] greater than 100 µM. The IC50 at 20 min [2, 12] was greater than 100 µM, the IC50 at 20 min ([2]; s9, pH 7.8, BFCOD inhibition in RT-S9, Unbound IC50, nominal IC50 of Protocol A × fU,RT-S9 (Eq. 4)) was 10 to 30 µM and the “Human CYP1A interactions: substrate status” value [3] was “Substrate”. For the same compound, the LogKOW [4] was 3.23 (e), the inhibition at 10 min [5] was greater than 50% and the IC50 at 10 min [5, 13] was 46 ± 9 µM. It also gave an IC50 at 10 min [5, 14] of roughly 10 µM and a fraction unbound at 4 h, 10 µM [1, 10] of 0.21 ± 0.05.
With `CCN1CCCC1CNC(=O)c1cc(S(N)(=O)=O)ccc1OC` (stereo not drawn) [Sulpiride, sulpiride] the “BFCOD inhibition in RT-S9 (in words)” value [6] was “did not significantly inhibit”.
For `Cc1ccccc1C(OCCN(C)C)c1ccccc1` (stereo not drawn) [Orphenadrine, orphenadrine citrate], the LogKOW [4] is listed as 3.77 (e) and the fraction unbound at 4 h, 10 µM [1, 10] is listed as 0.27 ± 0.05.
In the case of `CCNC(=O)CCC/C=C\C[C@@H]1[C@@H](/C=C/[C@@H](O)CCc2ccccc2)[C@H](O)C[C@@H]1O` [Bimatoprost, bimatoprost], the “Human CYP3A interactions: substrate status” value [7] is listed as “Substrate”, the “BFCOD inhibition in RT-S9 (in words)” value [6] is listed as “did not significantly inhibit” and the LogKOW [4] is listed as 3.2 (e).
For `CCN(CC)C(=S)SSC(=S)N(CC)CC` [Disulfiram, disulfiram], the LogKOW [4] is listed as 3.88 (e), the fraction unbound at 4 h, 10 µM ([1]; rainbow trout (Oncorhynchus mykiss), rainbow trout liver S9 fractions (RT-S9)) is listed as greater than 0.9 and the fraction unbound at 4 h, 10 µM [1, 10] is listed as 0.91 ± 0.42.
For `COc1cc2nc(N3CCN(C(=O)c4ccco4)CC3)nc(N)c2cc1OC` [Prazosin, prazosin hydrochloride], the IC50 at 20 min ([2]; s9, pH 7.8) was greater than 25 µM, the inhibition at 10 min [5] was greater than 50% and the IC50 at 10 min [5, 13] was 21 ± 2 µM. The “EROD inhibition in RT-S9 (in words)” value [8] was “inhibited selectively only EROD activity”.
In the case of `COc1ccc2nc([S@@+]([O-])Cc3ncc(C)c(OC)c3C)[nH]c2c1` [Esomeprazole, esomeprazole magnesium hydrate], the “Human CYP3A interactions: substrate status” value [7] is listed as “Substrate”, the IC50 at 20 min ([2]; s9, pH 7.8) is listed as greater than 100 µM and the inhibition at 20 min ([2]; s9, pH 7.8) is listed as no more than 50%. For the same compound, the IC50 shift at 20 min ([2]; s9, pH 7.8, BFCOD inhibition in RT-S9, IC50 shift (A/B), IC50 Protocol A / IC50 Protocol B, TDI if ≥1.5) was 1.2 ± 0.2, the IC50 shift at 20 min ([2]; s9, pH 7.8, BFCOD inhibition in RT-S9, IC50 shift (A/C), IC50 Protocol A / IC50 Protocol C) was 0.8 and the IC50 at 20 min [2, 11] was greater than 100 µM. The IC50 at 20 min [2, 12] was greater than 100 µM, the IC50 shift at 10 min ([9]; s9, pH 7.8, EROD inhibition in RT-S9, IC50 shift (A/B)) was 2.3 ± 0.7 and the IC50 shift at 10 min ([9]; s9, pH 7.8, EROD inhibition in RT-S9, IC50 shift (A/C)) was 1.7. For the same compound, the inhibition at 10 min [5] was greater than 50%, the IC50 at 10 min [5, 14] was 3 ± 0.8 µM and the fraction unbound at 4 h, 10 µM [1, 10] was 0.36 ± 0.08.
In the case of `CN1CCCC(n2nc(Cc3ccc(Cl)cc3)c3ccccc3c2=O)CC1` (stereo not drawn) [Azelastine, azelastine hydrochloride], the “Human CYP3A interactions: inhibitor status” value ([7]; ref Drugbank unless otherwise stated (Cohen et al., 2000; Guo et al., 1997; Niwa et al., 2005)) is given as “Inhibitor (m)”, the IC50 at 20 min ([2]; s9, pH 7.8) is given as greater than 100 µM and the inhibition at 20 min ([2]; s9, pH 7.8) is given as no more than 50%. The IC50 at 20 min [2, 11] was greater than 100 µM, the IC50 at 20 min [2, 12] was greater than 100 µM and the inhibition at 10 min [5] was greater than 50%. For the same compound, the IC50 at 10 min [5, 13] was 28 ± 2 µM, the IC50 at 10 min [5, 14] was 3.8 ± 0.5 µM and the fraction unbound at 4 h, 10 µM [1, 10] was 0.14 ± 0.01.
In the case of `CC(C)c1c(C(=O)Nc2ccccc2)c(-c2ccccc2)c(-c2ccc(F)cc2)n1CC[C@@H](O)C[C@@H](O)CC(=O)O` [Atorvastatin, atorvastatin calcium trihydrate], the LogKOW [4] is listed as 6.36 (e).
In the case of `OCCOCCN1CCN(C2=Nc3ccccc3Sc3ccccc32)CC1` [Quetiapine, quetiapine hemihumarate], the LogKOW [4] is listed as 2.81 (e) and the fraction unbound at 4 h, 10 µM [1, 10] is listed as 0.24 ± 0.06.
In the case of `Cc1ncsc1CCCl` [Clomethiazole, clomethiazole hydrochloride], the “Human CYP3A interactions: substrate status” value [7] is given as “Substrate”, the “BFCOD inhibition in RT-S9 (in words)” value [6] is given as “did not significantly inhibit” and the “EROD inhibition in RT-S9 (in words)” value ([8]; within the tested concentration range) is given as “did not significantly inhibit”. For the same compound, the “EROD inhibition in RT-S9 (in words)” value ([8]; within the tested concentration range, listed as Chlomethiazole) was “no significant EROD inhibition” and the fraction unbound at 4 h, 10 µM ([1]; rainbow trout (Oncorhynchus mykiss)) was greater than 0.9.
